Reference: PubChem BioAssay (NCI)
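Cultured in 96-well plates, cells were exposed to test compound for 48 hours across five concentrations. Here, GI50 denotes the concentration required for 50% inhibition of growth. Definition used: TGI = concentration required for complete inhibition of growth.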

Tests used:
Assay in all cases: inhibition of tumour cell growth, NCI panel, 48 h
786-0 renal = system: 786-0 renal
A498 renal = system: A498 renal
A549 NSCLC = system: A549 NSCLC
ACHN renal = system: ACHN renal
BT-549 breast = system: BT-549 breast
CAKI-1 renal = system: CAKI-1 renal
CCRF-CEM leukemia = system: CCRF-CEM leukemia
COLO 205 colon = system: COLO 205 colon
DU-145 prostate = system: DU-145 prostate
EKVX NSCLC = system: EKVX NSCLC
HCC-2998 colon = system: HCC-2998 colon
HCT-116 colon = system: HCT-116 colon
HCT-15 colon = system: HCT-15 colon
HL-60(TB) leukemia = system: HL-60(TB) leukemia
HOP-62 NSCLC = system: HOP-62 NSCLC
HOP-92 NSCLC = system: HOP-92 NSCLC
HS 578T breast = system: HS 578T breast
HT29 colon = system: HT29 colon
IGROV1 ovarian = system: IGROV1 ovarian
K-562 leukemia = system: K-562 leukemia
KM12 colon = system: KM12 colon
LOX IMVI melanoma = system: LOX IMVI melanoma
M14 melanoma = system: M14 melanoma
MALME-3M melanoma = system: MALME-3M melanoma
MCF7 breast = system: MCF7 breast
MDA-MB-231 breast = system: MDA-MB-231 breast
MDA-MB-435 = system: MDA-MB-435
MOLT-4 leukemia = system: MOLT-4 leukemia
NCI-H226 lung = system: NCI-H226 lung
NCI-H23 lung = system: NCI-H23 lung
NCI-H460 lung = system: NCI-H460 lung
NCI-H522 lung = system: NCI-H522 lung
NCI/ADR-RES ovarian = system: NCI/ADR-RES ovarian
OVCAR-3 ovarian = system: OVCAR-3 ovarian
OVCAR-4 ovarian = system: OVCAR-4 ovarian
OVCAR-5 ovarian = system: OVCAR-5 ovarian
OVCAR-8 ovarian = system: OVCAR-8 ovarian
PC-3 prostate = system: PC-3 prostate
RPMI-8226 leukemia = system: RPMI-8226 leukemia
RXF 393 renal = system: RXF 393 renal
SF-268 CNS = system: SF-268 CNS
SF-295 CNS = system: SF-295 CNS
SF-539 CNS = system: SF-539 CNS
SK-MEL-2 melanoma = system: SK-MEL-2 melanoma
SK-MEL-28 melanoma = system: SK-MEL-28 melanoma
SK-MEL-5 melanoma = system: SK-MEL-5 melanoma
SK-OV-3 ovarian = system: SK-OV-3 ovarian
SN12C renal = system: SN12C renal
SNB-19 CNS = system: SNB-19 CNS
SNB-75 CNS = system: SNB-75 CNS
SR leukemia = system: SR leukemia
SW-620 colon = system: SW-620 colon
T-47D breast = system: T-47D breast
TK-10 renal = system: TK-10 renal
U251 CNS = system: U251 CNS
UACC-257 melanoma = system: UACC-257 melanoma
UACC-62 melanoma = system: UACC-62 melanoma
UO-31 renal = system: UO-31 renal

Question: Which results are given for COc1ccc(NC2=C(Br)C(=O)C(C)=C(C)C2=O)cc1?
Answer: GI50 (786-0 renal): 15.7 µM; TGI (786-0 renal): 29.9 µM; GI50 (A498 renal): 1.62 µM; TGI (A498 renal): 33.6 µM; GI50 (A549 NSCLC): 18.7 µM; TGI (A549 NSCLC): 45.7 µM; GI50 (ACHN renal): 2.87 µM; TGI (ACHN renal): 8.76 µM; GI50 (BT-549 breast): 11.8 µM; TGI (BT-549 breast): 24.4 µM; GI50 (CAKI-1 renal): 1.72 µM; TGI (CAKI-1 renal): 3.11 µM; GI50 (CCRF-CEM leukemia): 2.33 µM; TGI (CCRF-CEM leukemia): > 100 µM; GI50 (COLO 205 colon): 21.3 µM; TGI (COLO 205 colon): 51 µM; GI50 (DU-145 prostate): 15 µM; TGI (DU-145 prostate): 29.1 µM; GI50 (EKVX NSCLC): 1.69 µM; TGI (EKVX NSCLC): 3.12 µM; GI50 (HCC-2998 colon): 12.4 µM; TGI (HCC-2998 colon): 26.5 µM; GI50 (HCT-116 colon): 1.76 µM; TGI (HCT-116 colon): 3.37 µM; GI50 (HCT-15 colon): 11.4 µM; TGI (HCT-15 colon): 27.7 µM; GI50 (HL-60(TB) leukemia): 2.34 µM; TGI (HL-60(TB) leukemia): 6.82 µM; GI50 (HOP-62 NSCLC): 15 µM; TGI (HOP-62 NSCLC): 38.6 µM; GI50 (HOP-92 NSCLC): 1.55 µM; TGI (HOP-92 NSCLC): 3.08 µM; GI50 (HS 578T breast): 11.8 µM; TGI (HS 578T breast): 57.5 µM; GI50 (HT29 colon): 27.4 µM; TGI (HT29 colon): 79.6 µM; GI50 (IGROV1 ovarian): 1.8 µM; TGI (IGROV1 ovarian): 3.39 µM; GI50 (K-562 leukemia): 2.25 µM; TGI (K-562 leukemia): > 100 µM; GI50 (KM12 colon): 5.02 µM; TGI (KM12 colon): 19 µM; GI50 (LOX IMVI melanoma): 1.67 µM; TGI (LOX IMVI melanoma): 3.17 µM; GI50 (M14 melanoma): 11.7 µM; TGI (M14 melanoma): 24.8 µM; GI50 (MALME-3M melanoma): 14.5 µM; TGI (MALME-3M melanoma): 28.3 µM; GI50 (MCF7 breast): 1.78 µM; TGI (MCF7 breast): 3.77 µM; GI50 (MDA-MB-231 breast): 1.88 µM; TGI (MDA-MB-231 breast): 3.96 µM; GI50 (MDA-MB-435): 1.91 µM; TGI (MDA-MB-435): 3.49 µM; GI50 (MOLT-4 leukemia): 2.67 µM; TGI (MOLT-4 leukemia): > 100 µM; GI50 (NCI-H226 lung): 13 µM; TGI (NCI-H226 lung): 27.6 µM; GI50 (NCI-H23 lung): 4.41 µM; TGI (NCI-H23 lung): 23.7 µM; GI50 (NCI-H460 lung): 18.8 µM; TGI (NCI-H460 lung): 42.6 µM; GI50 (NCI-H522 lung): 12.7 µM; TGI (NCI-H522 lung): 31.8 µM; GI50 (NCI/ADR-RES ovarian): 2.04 µM; TGI (NCI/ADR-RES ovarian): 4.65 µM; GI50 (OVCAR-3 ovarian): 1.72 µM; TGI (OVCAR-3 ovarian): 3.13 µM; GI50 (OVCAR-4 ovarian): 1.6 µM; TGI (OVCAR-4 ovarian): 2.97 µM; GI50 (OVCAR-5 ovarian): 5.07 µM; TGI (OVCAR-5 ovarian): 21.8 µM; GI50 (OVCAR-8 ovarian): 2.22 µM; TGI (OVCAR-8 ovarian): 5.31 µM; GI50 (PC-3 prostate): 2.78 µM; TGI (PC-3 prostate): 9.05 µM; GI50 (RPMI-8226 leukemia): 2.21 µM; TGI (RPMI-8226 leukemia): 5.01 µM; GI50 (RXF 393 renal): 2.71 µM; TGI (RXF 393 renal): 8.13 µM; GI50 (SF-268 CNS): 11.9 µM; TGI (SF-268 CNS): 28.2 µM; GI50 (SF-295 CNS): 13.8 µM; TGI (SF-295 CNS): 27 µM; GI50 (SF-539 CNS): 13.5 µM; TGI (SF-539 CNS): 26.7 µM; GI50 (SK-MEL-2 melanoma): 11.4 µM; TGI (SK-MEL-2 melanoma): 28.3 µM; GI50 (SK-MEL-28 melanoma): 2.3 µM; TGI (SK-MEL-28 melanoma): 4.76 µM; GI50 (SK-MEL-5 melanoma): 13.1 µM; TGI (SK-MEL-5 melanoma): 26 µM; GI50 (SK-OV-3 ovarian): 12.3 µM; TGI (SK-OV-3 ovarian): 26.1 µM; GI50 (SN12C renal): 11 µM; TGI (SN12C renal): 23.2 µM; GI50 (SNB-19 CNS): 10.5 µM; TGI (SNB-19 CNS): 22.8 µM; GI50 (SNB-75 CNS): 11 µM; TGI (SNB-75 CNS): 23.5 µM; GI50 (SR leukemia): 3.21 µM; TGI (SR leukemia): > 100 µM; GI50 (SW-620 colon): 2.07 µM; TGI (SW-620 colon): 4.54 µM; GI50 (T-47D breast): 1.93 µM; TGI (T-47D breast): 4.81 µM; GI50 (TK-10 renal): 25.2 µM; TGI (TK-10 renal): 40.9 µM; GI50 (U251 CNS): 1.93 µM; TGI (U251 CNS): 3.98 µM; GI50 (UACC-257 melanoma): 1.75 µM; TGI (UACC-257 melanoma): 3.37 µM; GI50 (UACC-62 melanoma): 7.74 µM; TGI (UACC-62 melanoma): 20.7 µM; GI50 (UO-31 renal): 1.73 µM; TGI (UO-31 renal): 3.16 µM
